{
  "source": "the kinase profiling compilation of Christmann-Franck et al. (2016)",
  "assay_in_all_cases": "radiometric filter-binding kinase assay, Kinase HotSpot",
  "conditions_in_all_cases": "compound 0.5 µM; ATP 10 µM",
  "key": {"AKT3 (human)": {"target": "AKT3 (human) (UniProt Q9Y243)"}, "CAMK1D (human)": {"target": "CAMK1D (human) (UniProt Q8IU85)"}, "CAMK2D (human)": {"target": "CAMK2D (human) (UniProt Q13557)"}, "CAMKK2 (human)": {"target": "CAMKK2 (human) (UniProt Q96RR4)"}, "CDC42BPA (human)": {"target": "CDC42BPA (human) (UniProt Q5VT25)"}, "CDK3 CCNE1 (human)": {"target": "CDK3 CCNE1 (human) (UniProt Q00526+P24864)"}, "CDK7 CCNH MNAT1 (human)": {"target": "CDK7 CCNH MNAT1 (human) (UniProt P50613+P51948+P51946)"}, "CHUK (human)": {"target": "CHUK (human) (UniProt O15111)"}, "CSNK1A1 (human)": {"target": "CSNK1A1 (human) (UniProt P48729)", "sequence (P48729 whole entry, looked up)": "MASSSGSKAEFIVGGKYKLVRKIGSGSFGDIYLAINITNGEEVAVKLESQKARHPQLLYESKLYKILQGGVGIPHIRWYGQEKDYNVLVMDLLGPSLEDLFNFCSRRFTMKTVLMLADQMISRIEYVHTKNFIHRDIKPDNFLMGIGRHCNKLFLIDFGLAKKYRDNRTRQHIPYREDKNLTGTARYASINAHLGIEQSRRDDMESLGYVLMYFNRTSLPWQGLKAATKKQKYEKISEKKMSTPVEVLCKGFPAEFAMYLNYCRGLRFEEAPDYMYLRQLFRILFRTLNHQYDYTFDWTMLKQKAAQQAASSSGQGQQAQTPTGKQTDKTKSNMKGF"}, "CSNK1G2 (human)": {"target": "CSNK1G2 (human) (UniProt P78368)"}, "DYRK2 (human)": {"target": "DYRK2 (human) (UniProt Q92630)"}, "EGFR (human)": {"target": "EGFR (human) (UniProt P00533)"}, "EPHA6 (human)": {"target": "EPHA6 (human) (UniProt Q9UF33)"}, "EPHB2 (human)": {"target": "EPHB2 (human) (UniProt P29323)"}, "ERBB4 (human)": {"target": "ERBB4 (human) (UniProt Q15303)"}, "GRK5 (human)": {"target": "GRK5 (human) (UniProt P34947)"}, "GRK6 (human)": {"target": "GRK6 (human) (UniProt P43250)"}, "GRK7 (human)": {"target": "GRK7 (human) (UniProt Q8WTQ7)"}, "HIPK2 (human)": {"target": "HIPK2 (human) (UniProt Q9H2X6)"}, "INSRR (human)": {"target": "INSRR (human) (UniProt P14616)"}, "[1]": {"target": "JAK1 JH1 catalytic (human) (UniProt P23458)", "sequence (P23458 whole entry, looked up)": "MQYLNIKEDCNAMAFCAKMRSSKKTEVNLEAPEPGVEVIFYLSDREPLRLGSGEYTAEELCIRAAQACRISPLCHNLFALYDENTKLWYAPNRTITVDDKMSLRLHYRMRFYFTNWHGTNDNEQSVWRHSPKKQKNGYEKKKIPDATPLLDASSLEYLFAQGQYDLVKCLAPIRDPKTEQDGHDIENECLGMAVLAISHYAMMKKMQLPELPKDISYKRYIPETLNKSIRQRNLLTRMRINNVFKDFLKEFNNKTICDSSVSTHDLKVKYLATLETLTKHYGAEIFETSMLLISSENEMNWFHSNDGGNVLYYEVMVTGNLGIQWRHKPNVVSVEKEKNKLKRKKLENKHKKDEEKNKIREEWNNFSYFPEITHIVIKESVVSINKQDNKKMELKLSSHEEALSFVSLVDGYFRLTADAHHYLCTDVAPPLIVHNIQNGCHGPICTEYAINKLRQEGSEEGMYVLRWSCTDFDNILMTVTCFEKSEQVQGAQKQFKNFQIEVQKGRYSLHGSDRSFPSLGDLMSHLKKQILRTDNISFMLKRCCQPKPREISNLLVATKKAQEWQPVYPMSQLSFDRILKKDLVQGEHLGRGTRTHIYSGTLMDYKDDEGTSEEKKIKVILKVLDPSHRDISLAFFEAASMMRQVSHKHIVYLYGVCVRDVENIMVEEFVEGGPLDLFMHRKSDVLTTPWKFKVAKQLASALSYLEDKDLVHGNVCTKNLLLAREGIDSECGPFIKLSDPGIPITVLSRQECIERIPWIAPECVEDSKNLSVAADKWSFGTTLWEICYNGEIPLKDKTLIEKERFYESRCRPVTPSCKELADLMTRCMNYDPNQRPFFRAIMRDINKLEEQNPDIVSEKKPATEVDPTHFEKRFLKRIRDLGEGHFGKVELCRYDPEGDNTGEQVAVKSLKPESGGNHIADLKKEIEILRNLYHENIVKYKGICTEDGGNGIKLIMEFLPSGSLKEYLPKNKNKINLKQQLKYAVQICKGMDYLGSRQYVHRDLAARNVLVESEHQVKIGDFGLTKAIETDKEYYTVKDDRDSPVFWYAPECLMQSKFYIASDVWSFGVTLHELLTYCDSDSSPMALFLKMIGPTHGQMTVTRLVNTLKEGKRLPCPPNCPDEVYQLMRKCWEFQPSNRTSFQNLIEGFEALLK"}, "MAPK10 (human)": {"target": "MAPK10 (human) (UniProt P53779)"}, "MARK1 (human)": {"target": "MARK1 (human) (UniProt Q9P0L2)"}, "MATK (human)": {"target": "MATK (human) (UniProt P42679)"}, "MKNK2 (human)": {"target": "MKNK2 (human) (UniProt Q9HBH9)"}, "NEK1 (human)": {"target": "NEK1 (human) (UniProt Q96PY6)"}, "NUAK1 (human)": {"target": "NUAK1 (human) (UniProt O60285)", "sequence (O60285 whole entry, looked up)": "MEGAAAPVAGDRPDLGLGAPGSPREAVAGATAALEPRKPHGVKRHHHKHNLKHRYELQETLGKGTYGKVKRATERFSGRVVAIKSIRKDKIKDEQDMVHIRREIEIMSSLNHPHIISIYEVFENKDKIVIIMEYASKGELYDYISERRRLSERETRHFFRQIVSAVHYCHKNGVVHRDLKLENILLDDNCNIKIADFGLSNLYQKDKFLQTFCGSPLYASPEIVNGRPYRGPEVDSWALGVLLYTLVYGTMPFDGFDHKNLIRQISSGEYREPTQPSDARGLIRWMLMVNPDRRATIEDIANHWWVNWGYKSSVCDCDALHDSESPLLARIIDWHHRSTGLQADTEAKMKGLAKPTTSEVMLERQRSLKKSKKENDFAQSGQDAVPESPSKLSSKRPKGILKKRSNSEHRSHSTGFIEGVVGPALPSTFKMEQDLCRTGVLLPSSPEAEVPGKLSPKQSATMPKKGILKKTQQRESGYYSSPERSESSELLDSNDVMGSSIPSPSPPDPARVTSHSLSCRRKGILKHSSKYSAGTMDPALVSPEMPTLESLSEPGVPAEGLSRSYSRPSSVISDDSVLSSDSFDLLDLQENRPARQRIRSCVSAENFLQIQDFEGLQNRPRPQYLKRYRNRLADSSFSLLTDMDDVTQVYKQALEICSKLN"}, "PAK6 (human)": {"target": "PAK6 (human) (UniProt Q9NQU5)"}, "PHKG1 (human)": {"target": "PHKG1 (human) (UniProt Q16816)"}, "PLK2 (human)": {"target": "PLK2 (human) (UniProt Q9NYY3)", "sequence (Q9NYY3 whole entry, looked up)": "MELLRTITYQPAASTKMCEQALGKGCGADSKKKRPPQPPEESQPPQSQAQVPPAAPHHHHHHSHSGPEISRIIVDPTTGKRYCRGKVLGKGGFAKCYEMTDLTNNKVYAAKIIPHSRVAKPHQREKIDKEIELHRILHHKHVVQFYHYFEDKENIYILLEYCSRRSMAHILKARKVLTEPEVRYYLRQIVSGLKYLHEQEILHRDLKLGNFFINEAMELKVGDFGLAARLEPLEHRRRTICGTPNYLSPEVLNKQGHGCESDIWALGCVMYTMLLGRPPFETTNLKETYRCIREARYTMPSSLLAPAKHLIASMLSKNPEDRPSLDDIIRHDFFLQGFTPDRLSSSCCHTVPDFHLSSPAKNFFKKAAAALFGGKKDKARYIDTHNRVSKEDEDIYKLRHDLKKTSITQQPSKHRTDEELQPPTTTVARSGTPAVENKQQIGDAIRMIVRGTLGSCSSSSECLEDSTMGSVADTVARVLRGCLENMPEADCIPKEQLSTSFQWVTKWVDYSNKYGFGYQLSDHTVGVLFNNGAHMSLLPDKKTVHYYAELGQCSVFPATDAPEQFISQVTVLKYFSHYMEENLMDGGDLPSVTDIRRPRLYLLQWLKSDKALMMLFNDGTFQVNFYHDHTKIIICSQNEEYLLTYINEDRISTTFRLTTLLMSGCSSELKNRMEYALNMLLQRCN"}, "PRKACG (human)": {"target": "PRKACG (human) (UniProt P22612)"}, "PTK6 (human)": {"target": "PTK6 (human) (UniProt Q13882)"}, "RPS6KA1 KD1 KD2 (human)": {"target": "RPS6KA1 KD1 KD2 (human) (UniProt Q15418)"}, "STK24 (human)": {"target": "STK24 (human) (UniProt Q9Y6E0)"}, "STK38 (human)": {"target": "STK38 (human) (UniProt Q15208)"}, "TAOK2 (human)": {"target": "TAOK2 (human) (UniProt Q9UL54)"}, "TAOK3 (human)": {"target": "TAOK3 (human) (UniProt Q9H2K8)", "sequence (Q9H2K8 whole entry, looked up)": "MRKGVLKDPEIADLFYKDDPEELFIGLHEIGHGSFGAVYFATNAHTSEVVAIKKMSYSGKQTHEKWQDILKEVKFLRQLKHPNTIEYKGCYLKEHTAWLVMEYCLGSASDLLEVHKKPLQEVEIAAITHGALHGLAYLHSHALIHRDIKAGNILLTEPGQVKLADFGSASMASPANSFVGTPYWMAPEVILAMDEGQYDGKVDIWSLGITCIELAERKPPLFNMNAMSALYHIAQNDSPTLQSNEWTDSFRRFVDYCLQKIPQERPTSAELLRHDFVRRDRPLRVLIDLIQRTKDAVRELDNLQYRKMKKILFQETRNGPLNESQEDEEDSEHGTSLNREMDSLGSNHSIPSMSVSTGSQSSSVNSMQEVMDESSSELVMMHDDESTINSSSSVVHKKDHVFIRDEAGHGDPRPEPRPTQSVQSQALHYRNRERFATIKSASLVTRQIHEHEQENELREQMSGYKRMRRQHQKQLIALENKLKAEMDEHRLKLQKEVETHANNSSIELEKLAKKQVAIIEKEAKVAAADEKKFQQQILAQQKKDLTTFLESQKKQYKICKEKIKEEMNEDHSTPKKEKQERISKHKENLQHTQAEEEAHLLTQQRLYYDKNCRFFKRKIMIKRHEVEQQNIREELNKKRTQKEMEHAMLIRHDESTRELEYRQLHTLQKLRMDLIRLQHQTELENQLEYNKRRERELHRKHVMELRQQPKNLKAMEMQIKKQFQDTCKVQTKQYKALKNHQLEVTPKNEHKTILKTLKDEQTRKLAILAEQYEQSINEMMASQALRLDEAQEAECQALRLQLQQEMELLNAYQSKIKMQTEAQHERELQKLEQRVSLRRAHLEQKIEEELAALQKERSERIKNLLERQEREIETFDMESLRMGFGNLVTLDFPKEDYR"}, "TEC (human)": {"target": "TEC (human) (UniProt P42680)", "sequence (P42680 whole entry, looked up)": "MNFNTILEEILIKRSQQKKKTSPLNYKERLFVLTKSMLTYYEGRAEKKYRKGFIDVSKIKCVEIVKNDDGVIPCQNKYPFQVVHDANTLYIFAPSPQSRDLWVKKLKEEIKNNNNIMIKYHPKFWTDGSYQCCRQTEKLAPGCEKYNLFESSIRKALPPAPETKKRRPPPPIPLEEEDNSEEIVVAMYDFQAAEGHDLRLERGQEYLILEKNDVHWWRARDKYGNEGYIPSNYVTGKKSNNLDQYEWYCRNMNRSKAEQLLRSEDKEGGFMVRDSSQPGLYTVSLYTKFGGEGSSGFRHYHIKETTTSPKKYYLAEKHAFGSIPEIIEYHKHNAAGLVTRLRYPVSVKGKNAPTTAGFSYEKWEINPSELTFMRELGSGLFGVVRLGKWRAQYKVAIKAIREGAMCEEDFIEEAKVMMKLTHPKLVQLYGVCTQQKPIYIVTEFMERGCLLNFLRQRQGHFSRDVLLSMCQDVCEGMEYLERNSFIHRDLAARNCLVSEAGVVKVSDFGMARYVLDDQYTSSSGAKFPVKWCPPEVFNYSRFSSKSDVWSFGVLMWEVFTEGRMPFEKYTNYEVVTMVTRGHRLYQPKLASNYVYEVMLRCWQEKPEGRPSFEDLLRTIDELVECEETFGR"}, "TLK2 (human)": {"target": "TLK2 (human) (UniProt Q86UE8)"}, "TTK (human)": {"target": "TTK (human) (UniProt P33981)"}, "ULK3 (human)": {"target": "ULK3 (human) (UniProt Q6PHR2)", "sequence (Q6PHR2 whole entry, looked up)": "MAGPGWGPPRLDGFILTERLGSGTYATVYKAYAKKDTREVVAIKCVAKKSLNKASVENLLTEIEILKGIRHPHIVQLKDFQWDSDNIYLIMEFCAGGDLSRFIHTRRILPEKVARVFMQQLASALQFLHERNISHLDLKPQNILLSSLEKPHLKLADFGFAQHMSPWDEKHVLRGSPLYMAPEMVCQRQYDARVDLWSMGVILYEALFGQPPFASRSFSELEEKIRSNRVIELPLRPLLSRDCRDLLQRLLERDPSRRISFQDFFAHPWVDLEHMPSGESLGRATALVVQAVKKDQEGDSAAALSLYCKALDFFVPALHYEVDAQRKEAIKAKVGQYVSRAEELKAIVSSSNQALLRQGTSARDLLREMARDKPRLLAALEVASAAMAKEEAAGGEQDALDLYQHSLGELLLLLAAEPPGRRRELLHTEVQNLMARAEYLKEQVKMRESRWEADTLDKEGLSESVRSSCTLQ"}, "HIPK1 (human)": {"target": "HIPK1 (human) (UniProt Q86Z02)"}},
  "data": [
    {"smiles": "CN(C)S(=O)(=O)c1ccc2c(c1)/C(=C/c1cc3c([nH]1)CCCC3)C(=O)N2", "values": [
      {"measurement": "residual activity", "setting": "AKT3 (human)", "value": 96.7, "unit": "%"},
      {"measurement": "residual activity", "setting": "CAMK1D (human)", "value": 99.8, "unit": "%"},
      {"measurement": "residual activity", "setting": "CAMK2D (human)", "value": 73.2, "unit": "%"},
      {"measurement": "residual activity", "setting": "CAMKK2 (human)", "value": 27.3, "unit": "%"},
      {"measurement": "residual activity", "setting": "CDC42BPA (human)", "value": 92.3, "unit": "%"},
      {"measurement": "residual activity", "setting": "CDK3 CCNE1 (human)", "value": 96.9, "unit": "%"},
      {"measurement": "residual activity", "setting": "CDK7 CCNH MNAT1 (human)", "value": 76.4, "unit": "%"},
      {"measurement": "residual activity", "setting": "CHUK (human)", "value": 115, "unit": "%"},
      {"measurement": "residual activity", "setting": "CSNK1A1 (human)", "value": 91.7, "unit": "%"},
      {"measurement": "residual activity", "setting": "CSNK1G2 (human)", "value": 93.8, "unit": "%"},
      {"measurement": "residual activity", "setting": "DYRK2 (human)", "value": 103, "unit": "%"},
      {"measurement": "residual activity", "setting": "EGFR (human)", "value": 93.4, "unit": "%"},
      {"measurement": "residual activity", "setting": "EPHA6 (human)", "value": 61.9, "unit": "%"},
      {"measurement": "residual activity", "setting": "EPHB2 (human)", "value": 98.4, "unit": "%"},
      {"measurement": "residual activity", "setting": "ERBB4 (human)", "value": 106, "unit": "%"},
      {"measurement": "residual activity", "setting": "GRK5 (human)", "value": 95.3, "unit": "%"},
      {"measurement": "residual activity", "setting": "GRK6 (human)", "value": 82.6, "unit": "%"},
      {"measurement": "residual activity", "setting": "GRK7 (human)", "value": 82.3, "unit": "%"},
      {"measurement": "residual activity", "setting": "HIPK2 (human)", "value": 98.2, "unit": "%"},
      {"measurement": "residual activity", "setting": "INSRR (human)", "value": 93.3, "unit": "%"},
      {"measurement": "residual activity", "setting": "[1]", "value": 66.8, "unit": "%"},
      {"measurement": "residual activity", "setting": "MAPK10 (human)", "value": 105, "unit": "%"},
      {"measurement": "residual activity", "setting": "MARK1 (human)", "value": 54.6, "unit": "%"},
      {"measurement": "residual activity", "setting": "MATK (human)", "value": 104, "unit": "%"},
      {"measurement": "residual activity", "setting": "MKNK2 (human)", "value": 84.1, "unit": "%"},
      {"measurement": "residual activity", "setting": "NEK1 (human)", "value": 93.1, "unit": "%"},
      {"measurement": "residual activity", "setting": "NUAK1 (human)", "value": 10.9, "unit": "%"},
      {"measurement": "residual activity", "setting": "PAK6 (human)", "value": 98.9, "unit": "%"},
      {"measurement": "residual activity", "setting": "PHKG1 (human)", "value": 72.4, "unit": "%"},
      {"measurement": "residual activity", "setting": "PLK2 (human)", "value": 94.4, "unit": "%"},
      {"measurement": "residual activity", "setting": "PRKACG (human)", "value": 114, "unit": "%"},
      {"measurement": "residual activity", "setting": "PTK6 (human)", "value": 56.3, "unit": "%"},
      {"measurement": "residual activity", "setting": "RPS6KA1 KD1 KD2 (human)", "value": 68.1, "unit": "%"},
      {"measurement": "residual activity", "setting": "STK24 (human)", "value": 47.7, "unit": "%"},
      {"measurement": "residual activity", "setting": "STK38 (human)", "value": 94.6, "unit": "%"},
      {"measurement": "residual activity", "setting": "TAOK2 (human)", "value": 89.6, "unit": "%"},
      {"measurement": "residual activity", "setting": "TAOK3 (human)", "value": 55.4, "unit": "%"},
      {"measurement": "residual activity", "setting": "TEC (human)", "value": 116, "unit": "%"},
      {"measurement": "residual activity", "setting": "TLK2 (human)", "value": 102, "unit": "%"},
      {"measurement": "residual activity", "setting": "TTK (human)", "value": 89.7, "unit": "%"},
      {"measurement": "residual activity", "setting": "ULK3 (human)", "value": 26.3, "unit": "%"}
    ]},
    {"smiles": "Cc1cncc2cccc(S(=O)(=O)N3CCCN(C(=O)CN)C[C@H]3C)c12", "values": [
      {"measurement": "residual activity", "setting": "AKT3 (human)", "value": 98.8, "unit": "%"},
      {"measurement": "residual activity", "setting": "CAMK1D (human)", "value": 104, "unit": "%"},
      {"measurement": "residual activity", "setting": "CAMK2D (human)", "value": 108, "unit": "%"},
      {"measurement": "residual activity", "setting": "CAMKK2 (human)", "value": 115, "unit": "%"},
      {"measurement": "residual activity", "setting": "CDC42BPA (human)", "value": 95.1, "unit": "%"},
      {"measurement": "residual activity", "setting": "CDK3 CCNE1 (human)", "value": 98, "unit": "%"},
      {"measurement": "residual activity", "setting": "CDK7 CCNH MNAT1 (human)", "value": 98, "unit": "%"},
      {"measurement": "residual activity", "setting": "CHUK (human)", "value": 105, "unit": "%"},
      {"measurement": "residual activity", "setting": "CSNK1A1 (human)", "value": 98.9, "unit": "%"},
      {"measurement": "residual activity", "setting": "CSNK1G2 (human)", "value": 95.1, "unit": "%"},
      {"measurement": "residual activity", "setting": "DYRK2 (human)", "value": 101, "unit": "%"},
      {"measurement": "residual activity", "setting": "EGFR (human)", "value": 98.7, "unit": "%"},
      {"measurement": "residual activity", "setting": "EPHA6 (human)", "value": 92.2, "unit": "%"},
      {"measurement": "residual activity", "setting": "ERBB4 (human)", "value": 78.4, "unit": "%"},
      {"measurement": "residual activity", "setting": "GRK5 (human)", "value": 97.1, "unit": "%"},
      {"measurement": "residual activity", "setting": "GRK6 (human)", "value": 85.5, "unit": "%"},
      {"measurement": "residual activity", "setting": "GRK7 (human)", "value": 88.8, "unit": "%"},
      {"measurement": "residual activity", "setting": "HIPK1 (human)", "value": 99.1, "unit": "%"},
      {"measurement": "residual activity", "setting": "HIPK2 (human)", "value": 90.2, "unit": "%"},
      {"measurement": "residual activity", "setting": "INSRR (human)", "value": 103, "unit": "%"},
      {"measurement": "residual activity", "setting": "[1]", "value": 108, "unit": "%"},
      {"measurement": "residual activity", "setting": "MAPK10 (human)", "value": 103, "unit": "%"},
      {"measurement": "residual activity", "setting": "MARK1 (human)", "value": 89.7, "unit": "%"},
      {"measurement": "residual activity", "setting": "MATK (human)", "value": 94.4, "unit": "%"},
      {"measurement": "residual activity", "setting": "MKNK2 (human)", "value": 83.8, "unit": "%"},
      {"measurement": "residual activity", "setting": "NEK1 (human)", "value": 100, "unit": "%"},
      {"measurement": "residual activity", "setting": "NUAK1 (human)", "value": 91.1, "unit": "%"},
      {"measurement": "residual activity", "setting": "PAK6 (human)", "value": 108, "unit": "%"},
      {"measurement": "residual activity", "setting": "PHKG1 (human)", "value": 65.3, "unit": "%"},
      {"measurement": "residual activity", "setting": "PLK2 (human)", "value": 101, "unit": "%"},
      {"measurement": "residual activity", "setting": "PRKACG (human)", "value": 112, "unit": "%"},
      {"measurement": "residual activity", "setting": "PTK6 (human)", "value": 87.8, "unit": "%"},
      {"measurement": "residual activity", "setting": "RPS6KA1 KD1 KD2 (human)", "value": 90.4, "unit": "%"},
      {"measurement": "residual activity", "setting": "STK24 (human)", "value": 92.4, "unit": "%"},
      {"measurement": "residual activity", "setting": "STK38 (human)", "value": 97.1, "unit": "%"},
      {"measurement": "residual activity", "setting": "TAOK2 (human)", "value": 94, "unit": "%"},
      {"measurement": "residual activity", "setting": "TAOK3 (human)", "value": 96.2, "unit": "%"},
      {"measurement": "residual activity", "setting": "TEC (human)", "value": 117, "unit": "%"},
      {"measurement": "residual activity", "setting": "TLK2 (human)", "value": 97.7, "unit": "%"},
      {"measurement": "residual activity", "setting": "TTK (human)", "value": 111, "unit": "%"},
      {"measurement": "residual activity", "setting": "ULK3 (human)", "value": 83.2, "unit": "%"}
    ]}
  ]
}
